One may read the Kd as the concentration at which binding is half-saturated. Read a low Kd as tighter binding.

Each structure is given as a SMILES string.

The target in experiment [1] is T1, OBP14 (odorant binding protein 14) (Apis mellifera, UniProt A0A8U0WQC3).
T1 construct: recombinant, bacterial expression, purified by chromatography and Superose-12 gel filtration; covalently immobilized via PBSE linker on rGO FET gate
T1 sequence (A0A8U0WQC3 17-135): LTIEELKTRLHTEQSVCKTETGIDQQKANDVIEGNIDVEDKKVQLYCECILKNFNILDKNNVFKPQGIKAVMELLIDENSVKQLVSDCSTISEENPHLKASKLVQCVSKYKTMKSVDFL
The experiment is described as follows: rGO-FET biosensor, equilibrium titration, Langmuir isotherm. Conditions: protein covalently immobilized via PBSE on rGO gate; aqueous solution; titration determination.

Experiment [2] deals with T1, OBP14 (odorant binding protein 14). The experiment is described as follows: rGO-FET biosensor, real-time kinetics (koff/kon), source-drain current.
The target is the same in experiment [3]. The experiment is described as follows: rGO-FET biosensor, shift of ISD-vs-VG curves with ligand concentration. To be noted: protein covalently immobilized via PBSE on rGO gate; liquid gate, VSD = 50 mV.

As to `COc1cc(CC(=O)O)ccc1O` [homovanillic acid], the KA in experiment [1] is listed as 2.5 × 10^5. In experiment [2], this compound returned a Kd of 7.1 µM.

Consider `C=CCc1ccc(O)c(OC)c1` [Eugenol], for which the “rGO-FET biosensor, shift of ISD-vs-VG curves with ligand concentration” value in experiment [3] is “OBP14 functionalized rGO FET-biosensor device at different Eugenol concentrations”.
